Measured values as given in patent US20200390729A1, “OPHTHALMIC TOPICAL COMPOSITION COMPRISING DOBESILIC ACID FOR TREATING DISEASES OF THE POSTERIOR SEGMENT OF THE EYE” (LABORATORIOS SALVAT, S.A., priority 2017, published 2020).

Test system: egg chorioallantoic membrane (CAM)
Assay: Ocular irritation assay (HET-CAM)
Design: species or system White Leghorn chicken eggs
Settings: 100 mg/ml, CAM observed for 5 minutes
Excerpt: The HET-CAM is an alternative method to the Draize Rabbit Eye Test which mimics vascular changes in the chorioallantoic membrane, an analog for ocular conjunctiva, which can be used to determine the potential irritancy of a test substance. This method is based on that described in Hen's Egg Test-Chorioallantoic Membrane (HET-CAM) Test Method (ICCVAM-Recommended Test Method Protocol, NIH Publication No. 10-7553—Published 2010)
Fertilized white SPF (special pathogen free) White Leghorn chicken eggs were incubated at 37° C. and 60% humidity up to day 10. After determination of the viability of the embryo, a rectangular window was removed from the shell directly over the air cell and the egg membrane was carefully moistened with 2-3 ml 0.9% saline. After returning to the incubator for 30 minutes, the inner membrane was removed and the test substance was applied to the CAM membrane with a pipette. Eggs were observed continuously for 5 minutes for the appearance of lysis, hemorrhage and/or coagulation and an irritation score (IS) was determined following the ICCVAM-Recommended Test Method Protocol (NIH Publication No. 10-7553-Published 2010) guideline.

In the case of `O=S(=O)([O-])c1cc(O)ccc1O.[K+]` [potassium dobesilate], the HET-CAM irritation characterization is reported as “not irritating” and the “HET-CAM lysis, haemorrhage or coagulation processes” value is reported as “did not trigger any lysis, haemorrhage or coagulation processes”.
`CCNCC.O=S(=O)(O)c1cc(O)ccc1O` [etamsylate, diethylamine 2,5-dihydroxybenzenesulfonate] was tested, and the HET-CAM irritation characterization was “not irritating” and the “HET-CAM lysis, haemorrhage or coagulation processes” value was “did not trigger any lysis, haemorrhage or coagulation processes”.
